From patent publication US20070219224A1, “Compositions and Methods Relating to Pyrimidine Synthesis Inhibitors” (UAB RESEARCH FOUNDATION, THE, priority 2004, published 2007)
“Also recorded” adds a separate entry of the source. Like-named read-outs stand apart in the source and are kept apart here. Marks after values point to notes of the source that are not given here.

Legend:
RSV-infected BALB/c mice [1] = experiment: Alveolar fluid clearance (AFC) in RSV-infected mice at day 2 p.i.; assay type: in vivo; settings: for effect on RSV-mediated inhibition of AFC at d2 (in words): systemic treatment (leflunomide oral gavage; uridine, 6-MP i.p.)
Procedure: Preparation of viral inocula and infection of mice. […] J. Physiol. Lung Cell Mol. Physiol. […] Data for each experimental group was derived from a minimum of 2 independent infections.
(§1) Systemic inhibition of de novo pyrimidine and purine synthesis. Leflunomide (5-methylisoxazole-4-[4-trifluoromethyl]carboxanilide, 35 mg/kg in distilled water containing 1% methylcellulose) was administered once daily by oral gavage in a volume of 300 μl/mouse for 8 days prior to infection, then throughout the infection period. Vehicle controls were gavaged with an equivalent volume of 1% methylcellulose in distilled water.
To systemically block de novo pyrimidine synthesis, mice were gavaged once daily for 8 days with […] of the dihydro-orotate reductase (DHOR) inhibitor leflunomide ([…] suspended in 1% methylcellulose) or vehicle prior to infection, then at 0 and 24 hours p.i. AFC studies were performed at 48 hours p.i., with no additions to the AFC instillate.
(§2) AFC studies were performed on anesthetized, ventilated BALB/c mice with normal body temperature and blood gases, over a 30 minute period after intratracheal instillation of 0.3 ml of isosmolar NaCl containing 5% fatty acid-free BSA. The number of mice analyzed per group is listed in the relevant bar of each graph.

uninfected BALB/c mice = experiment: Alveolar fluid clearance (AFC) in uninfected or mock-infected mice; assay type: in vivo; settings: for effect on AFC in uninfected / normal (mock-infected) mice (in words): leflunomide oral gavage
Procedure: Systemic inhibition of de novo pyrimidine and purine synthesis. […] Vehicle controls were gavaged with an equivalent volume of 1% methylcellulose in distilled water. Uridine (1 g/kg in 0.9% NaCl) was administered by i.p. injection every 12 hours in a volume of 100 μl (8). […]
as §2

[2] = test system: IFN-α, IL-1β, KC, TNF-α in BALF; experiment: Measurement of proinflammatory cytokines in BALF (ELISA); assay type: in vivo, BALB/c mice; settings: RSV-infected mice, d2
Procedure: (§3) Preparation of viral inocula and infection of mice. Preparation of viral stocks and intranasal infection of eight to twelve week-old pathogen-free BALB/c mice of either sex with RSV strain A2 (10^6 PFU in 100 μl) were performed as described in Davis et al., “Nucleotide-mediated inhibition of alveolar fluid clearance in BALB/c mice after respiratory syncytial virus infection,” Am. J. Physiol. Lung Cell Mol. Physiol. 286:L112-L120. (2004). Data for each experimental group was derived from a minimum of 2 independent infections.
Bronchoalveolar lavage. Bronchoalveolar lavage fluid (BALF) was collected as previously described in Davis et al., (2004), using 1 ml of sterile normal saline for cytokine ELISAs, or 0.3 ml of sterile saline for nucleotide assays. Lavagates were centrifuged to remove cells and supernatants stored at −80° C.
Systemic inhibition of de novo pyrimidine and purine synthesis. Leflunomide (5-methylisoxazole-4-[4-trifluoromethyl]carboxanilide, 35 mg/kg in distilled water containing 1% methylcellulose) was administered once daily by oral gavage in a volume of 300 μl/mouse for 8 days prior to infection, then throughout the infection period. Vehicle controls were gavaged with an equivalent volume of 1% methylcellulose in distilled water. […].
Measurement of proinflammatory cytokines in BALF. Cytokine levels were determined using Quantikine M ELISA kits (R & D Systems), in accordance with manufacturer's instructions.

[3] = assay type: in vivo; settings: for body weight loss after RSV infection: D1 and d2 p.i., versus untreated RSV-infected mice
Procedure: as §3
(§4) Systemic inhibition of de novo pyrimidine and purine synthesis. Leflunomide (5-methylisoxazole-4-[4-trifluoromethyl]carboxanilide, 35 mg/kg in distilled water containing 1% methylcellulose) was administered once daily by oral gavage in a volume of 300 μl/mouse for 8 days prior to infection, then throughout the infection period. Vehicle controls were gavaged with an equivalent volume of 1% methylcellulose in distilled water. […]

RSV strain A2 = experiment: RSV replication in mouse lungs; assay type: in vivo, Respiratory syncytial virus; settings: for virus replication in lung tissue at d2: RSV-infected mice, day 2 p.i., systemic treatment
Procedure: as §3, §4

RSV-infected BALB/c mice [4] = experiment: Mean peripheral blood oxygen saturation (SmO2), pulse oximetry; assay type: in vivo; settings: d2
Procedure: Measurement of mean peripheral blood oxygen saturation. Peripheral blood oxygen saturation was measured in conscious mice, using a PREEMIE OXYTIP® sensor (Datex-Olmeda, hic., Madison, Wis.), connected to a TUFFSAT™ pulse oximeter (Datex-Ohmeda, Inc., Madison, Wis.). Because of the extremely rapid pulse rate of the mouse, oximetry values are mean hemoglobin O2 saturation (SmO2) values from arterial and venous blood.
as §1, with “water. Uridine (1 g/kg in 0.9% NaCl) was administered by i.p. injection every 12 hours in a volume of 100 μl (8). 6-MP (35 mg/kg in 1N NaOH, pH adjusted to 7.9 with 2 M Na2HPO4) was administered by i.p. injection every 24 hours in a volume of 100 μl, for 5 days prior to infection, then throughout the infection period.” for “water.”

RSV-infected BALB/c mice [5] = experiment: Heart rate change with ventilation (% ΔHR30), ECG; assay type: in vivo; settings: RSV-infected mice during AFC procedures, d2
Procedure: Measurement of heart rate changes with ventilation. ECG tracings were used to measure heart rate (number of QRS complexes/cm) at the start (HRSTART) and end (HREND) of the AFC assay. The % change in rate over the 30-minute ventilation period (% ΔHR30) was calculated as (HRSTART−HREND)/HRSTART.
as §1, with “water. Uridine (1 g/kg in 0.9% NaCl) was administered by i.p. injection every 12 hours in a volume of 100 μl (8). 6-MP (35 mg/kg in 1N NaOH, pH adjusted to 7.9 with 2 M Na2HPO4) was administered by i.p. injection every 24 hours in a volume of 100 μl, for 5 days prior to infection, then throughout the infection period.” for “water.”

Cc1oncc1C(=O)Nc1ccc(C(F)(F)F)cc1 [Leflunomide, 5-methylisoxazole-4-[4-trifluoromethyl]carboxanilide]
amiloride-sensitive part of AFC (RSV-infected BALB/c mice [1]; RSV-infected leflunomide-treated mice at d2 (61% in uninfected, −8% in untreated mice at d2)): 57% | AFC30BASAL (mean % basal AFC after 30 minutes ± SE) (RSV-infected BALB/c mice [1]; RSV-infected mice, day 2 p.i., leflunomide 5 mg/kg oral gavage once daily, uridine 1 mg/kg i.p. q12h): 33.4 ± 3.00 % | effect on RSV-mediated inhibition of AFC at d2 (in words) (RSV-infected BALB/c mice [1]): blocked RSV-induced inhibition of AFC | effect on RSV-mediated inhibition of AFC at d2 (in words) (RSV-infected BALB/c mice [1]; listed as LEF): reverses RSV-mediated inhibition of AFC | effect on RSV-mediated inhibition of AFC at d2 (in words) (RSV-infected BALB/c mice [1]; listed as leflunomide): prevented RSV-induced inhibition of AFC; also recorded: reversed the inhibitory effect of RSV on AFC | effect on AFC in uninfected / normal (mock-infected) mice (in words) (uninfected BALB/c mice): no detrimental effect on AFC | effect on AFC in uninfected / normal (mock-infected) mice (in words) (uninfected BALB/c mice; listed as LEF): no effect on AFC | effect on AFC in uninfected / normal (mock-infected) mice (in words) (uninfected BALB/c mice; listed as leflunomide): significant inhibition of AFC | AFC30BASAL (mean % basal AFC after 30 minutes ± SE) (uninfected BALB/c mice; mock-infected mice, leflunomide 5 mg/kg oral gavage once daily): 33.16 ± 2.40 % | AFC (mean % AFC ± SE) (uninfected BALB/c mice; uninfected mice, leflunomide-treated): 29.98 ± 1.5 % | BALF proinflammatory cytokine levels (IFN-α, IL-1β, KC, TNF-α) (in words) [2]: significantly reduced | BALF proinflammatory cytokine levels (IFN-α, IL-1β, KC, TNF-α) (in words) ([2]; listed as LEF): significant reduction | IFN-α, mean cytokine concentration in BALF ± SE ([2]; systemic treatment): 72 ± 12 pg/mL | IL-1β, mean cytokine concentration in BALF ± SE ([2]; systemic treatment): 20 ± 8 pg/mL | KC, mean cytokine concentration in BALF ± SE ([2]; systemic treatment): 425 ± 58 pg/mL | TNF-α, mean cytokine concentration in BALF ± SE ([2]; systemic treatment): 0*** pg/ml | body weight loss after RSV infection [3]: significantly reduced the degree of weight loss | body weight loss after RSV infection ([3]; listed as LEF): significant reduction in weight loss | body weight loss after RSV infection ([3]; listed as leflunomide): significantly reduced the degree of weight loss | body weight during the pretreatment (preinfection) period ([3]; before RSV infection, leflunomide 8 days, 6-MP 5 days): no significant decline in body weight | toxicity (inferred from body weight) ([3]; mouse, in vivo): very limited leflunomide toxicity | virus replication in lung tissue at d2 (RSV strain A2): unaffected | virus replication in lung tissue at d2 (RSV strain A2; listed as LEF): no effect on virus replication | virus replication at d8, treatment continued (RSV strain A2; leflunomide continued throughout the 8 day infection period): persisted at high levels | virus replication at d8, treatment discontinued (RSV strain A2; leflunomide discontinued after d2): only minimally increased | SmO2 (mean blood O2 saturation) (RSV-infected BALB/c mice [4]): improved mean blood O2 saturation; also recorded: normalization of SmO2 readings | % ΔHR30 (RSV-infected BALB/c mice [5]): prevented the increase in % ΔHR30
